Source: patent US4264736A, “Antibiotic 890A10” (Merck & Co., Inc., priority 1979, dated 1981)

Tests used:
[1] = system: Aerobacter aerogenes MB No. 835; assay: Antibiotic spectrum profile, agar zone of inhibition; type: cell-based; conditions: Klebsiella aerogenes, MBNO.835, 0.015 ml of 9.5 μg/ml aqueous solution, 25° C., read-out: Inhib. Zone Diam.
Method: (§1) The test to determine the antibiotic spectrum profiles of antibiotic 890A10 is carried out by application of a 0.015 ml. droplet of a 9.5 μg./ml. aqueous solution of the antibiotic on the surface of a 100×15 mm. petri plate containing 3 ml. of seeded nutrient agar plus 0.2% yeast extract which is incubated at 25° C.

Bacillus sp. MB No. 633 = assay: as above; type: cell-based; conditions: 0.015 ml of 9.5 μg/ml aqueous solution, 25° C., read-out: Inhib. Zone Diam.
Method: as §1

[2] = system: Serratia marcescens ATCC 890; assay: as above; type: cell-based; conditions: ATCC890, 0.015 ml of 9.5 μg/ml aqueous solution, 25° C., read-out: Inhib. Zone Diam.
Method: as §1

[3] = system: Protcus vulgaris MB No. 1012; assay: as above; type: cell-based; conditions: 0.015 ml of 9.5 μg/ml aqueous solution, 25° C., read-out: Inhib. Zone Diam.
[4] = system: Bacillus subtilis ATCC 6633; assay: as above; type: cell-based; conditions: ATCC6633, 0.015 ml of 9.5 μg/ml aqueous solution, 25° C., read-out: Inhib. Zone Diam.
Sarcina lutea ATCC 9341 = assay: as above; type: cell-based; conditions: Micrococcus luteus, ATCC9341, 0.015 ml of 9.5 μg/ml aqueous solution, 25° C., read-out: Inhib. Zone Diam.
[5] = system: Staphylococcus aureus MB No. 698; assay: as above; type: cell-based; conditions: MBNO.698, 0.015 ml of 9.5 μg/ml aqueous solution, 25° C., read-out: Inhib. Zone Diam.
[6] = system: Streptococcus faecalis MB No. 753; assay: as above; type: cell-based; conditions: Enterococcus faecalis, MBNO.753, 0.015 ml of 9.5 μg/ml aqueous solution, 25° C., read-out: Inhib. Zone Diam.
[7] = system: Brucella bronchiseptica ATCC 4617; assay: microbe, parasite or virus in culture; type: cell-based; conditions: Bordetella bronchiseptica, ATCC4617, read-out: Inhib. Zone Diam.
[8] = system: Xanthomonas vesicatoria MB No. 815; assay: Antibiotic spectrum profile, agar zone of inhibition; type: cell-based; conditions: MBNO.815, 0.015 ml of 9.5 μg/ml aqueous solution, 25° C., read-out: Inhib. Zone Diam.
[9] = system: Erwinia atroseptica ATCC 4446; assay: as above; type: cell-based; conditions: Pectobacterium atrosepticum, ATCC4446, 0.015 ml of 9.5 μg/ml aqueous solution, 25° C., read-out: Inhib. Zone Diam.
[10] = system: Corynebacterium psedodiph. ATCC 9742; assay: as above; type: cell-based; conditions: ATCC9742, 0.015 ml of 9.5 μg/ml aqueous solution, 25° C., read-out: Inhib. Zone Diam.
[11] = system: Escherichia coli ATCC 9637; assay: as above; type: cell-based; conditions: ATCC9637, 0.015 ml of 9.5 μg/ml aqueous solution, 25° C., read-out: Inhib. Zone Diam.
[12] = Electrophoresis at neutral pH; type: physicochemical; conditions: 50 volts/cm, 0.03 M potassium phosphate buffer, pH 7.1, 30 minutes
Method: Antibiotic 890A10 is an acidic substance which migrates toward the positive pole on electrophoresis at neutral pH. At a gradient of 50 volts/cm. in 0.03 M potassium phosphate buffer, pH 7.1, the antibiotic moves 8.0 cm. in 30 minutes, compared with a movement of 4.0 cm. for 890A1. The disodium salt is a white or slightly yellow powder as lyophilized from aqueous solution. Under acidic conditions in aqueous solution, the antibiotic is unstable, and the free acid form has not been isolated.

[13] = system: Vibrio percolans ATCC 8461; assay: Bioassay, agar plate disc-diffusion, 890A1 standard; type: cell-based; conditions: measured against standard of antibiotic 890A1 (defined as 250 units per HAEA300 unit)
Method: An agar plate disc-diffusion method is employed using Vibrio percolans ATCC 8461 as tester organism. A purified sample of antibiotic 890A1 is used as standard. Antibiotic 890A1 is prepared according to the procedure set forth in Example 6.
Plates containing Vibrio percolans ATCC 8461 are prepared as follows:
A lyophilized culture of Vibrio percolans ATCC 8461 is suspended in 15 ml. of a sterilized medium containing 8 g./liter of Difco Nutrient Broth and 2 g./liter of yeast extract in distilled water "nutrient broth-yeast extract" (herein after designated NBYE). The culture is incubated overnight on a rotary shaker at 28° C. This culture is used to inoculate the surface of slants containing 1.5% agar in NBYE, and the inoculated slants are incubated overnight at 28° C., and then stored in a refrigerator. […]
Filter paper discs of one-half inch diameter are dipped into the solution to be assayed, and are placed on the agar. […] The diameter of the zone of inhibition is measured after appropriate incubation (12-14 hours at 25° C.). […]
Calculations of potencies proceed as follows: a slope is determined by measuring the zone diameters of a solution of antibiotic 890A10 and of a fourfold dilution (in KPB) of this solution. Two discs of each concentration are assayed on a single plate, and the average zone size at each concentration is determined. […] Potencies are then calculated by the formula: [formula] […]

## CC(=O)NCCSC1=C(C(=O)O)N2C(=O)C(C(C)OS(=O)(=O)O)C2C1 (stereo not drawn) [Antibiotic 890A10]
[1]
  zone of inhibition at 9.5 µg/mL: 22 mm
Bacillus sp. MB No. 633
  zone of inhibition at 9.5 µg/mL: 30 mm
[2]
  zone of inhibition at 9.5 µg/mL: 15 mm
[3]
  zone of inhibition at 9.5 µg/mL: 19 mm
[4]
  zone of inhibition at 9.5 µg/mL: 30 mm
Sarcina lutea ATCC 9341
  zone of inhibition at 9.5 µg/mL: 33 mm
[5]
  zone of inhibition at 9.5 µg/mL: 23 mm
[6]
  zone of inhibition at 9.5 µg/mL: 0 mm
[7]
  zone of inhibition at 9.5 µg/mL: 0 mm
[8]
  zone of inhibition at 9.5 µg/mL: 20 mm
[9]
  zone of inhibition at 9.5 µg/mL: 10 mm
[10]
  zone of inhibition at 9.5 µg/mL: 12 mm
[11]
  zone of inhibition at 9.5 µg/mL: 17 mm
[12]
  movement toward the positive pole on electrophoresis: 8.0 cm
[13]
  bioassay units per HAEA300 unit: 174 bioassay units per HAEA300 unit
